Results: patent publication US7622551B2, “Leukocyte stimulating peptides” (POSCO, priority 2004, dated 2009)
Where no end group is shown, it is not given here.

Columns and labels:
[1] = tested on: undifferentiated HL60 cells; experiment: [Ca2+]i increase in undifferentiated HL60 cells; type: cell-based, human; details: for [Ca^2+]i increase in undifferentiated HL60 cells: peptides 10 μM (FIG. 8)
Description: (§1) U937 (human histiocytic lymphoma cells), HL60 (human promyelocytic leukemia cells), Raw 264.7 (mouse macrophage), Jurkat (human acute T cell leukemia), PC12 (rat adrenal pheochromocytoma cells), 3Y1 (Rat embryonic fibroblasts), 3T3L1 (preadipocytes), and NCI-H292 (human mucoepidermoid pulmonary carcinoma cells) were obtained from the American Type Culture Collection (Rockville, Md.) and maintained as recommended. FPR- or FPRL1 expressing RBL-2H3 cells were cultured as described previously (He et al. J. Immunol. 2000. 165: 4598-4605). Cells were maintained at about 1×10^6 cells/ml under standard incubator conditions (humidified atmosphere, 95% air, 5% CO2, at 37° C.). HL60 cells were induced to differentiate into the granulocyte phenotype by adding dimethylsulfoxide (DMSO) (final concentration 1.25%, v/v) for 4 days to the culture medium, as described previously (Itoh et al. Blood. 1998. 92: 1432-1441).
(§2) The level of [Ca^2+]i was determined using Grynkiewicz's method using fura-2/AM (Grynkiewicz et al. J. Biol. Chem. 1985. 260: 3440-3550). Briefly, prepared cells were incubated with 3 μM of fura-2/AM at 37° C. for 50 min in serum-free RPMI 1640 medium under continuous stirring. 2×10^6 cells were aliquoted for each assay in Ca^2+ free Locke's solution (154 mM NaCl, 5.6 mM KCl, 1.2 mM MgCl2, 5 mM HEPES, pH 7.3, 10 mM glucose, and 0.2 mM EGTA). Fluorescence changes were measured at the dual excitation wavelength of 340 nm and 380 nm, and the calculated fluorescence ratio was translated into [Ca^2+]i.

FPR = biological target: T1, FPR (Homo sapiens, UniProt P21462); experiment: [Ca2+]i increase in FPR-expressing RBL-2H3 cells; type: cell-based; details: data not shown
T1 construct: expressed in transfected cells; host or cells: RBL-2H3
T1 sequence (P21462 1-350): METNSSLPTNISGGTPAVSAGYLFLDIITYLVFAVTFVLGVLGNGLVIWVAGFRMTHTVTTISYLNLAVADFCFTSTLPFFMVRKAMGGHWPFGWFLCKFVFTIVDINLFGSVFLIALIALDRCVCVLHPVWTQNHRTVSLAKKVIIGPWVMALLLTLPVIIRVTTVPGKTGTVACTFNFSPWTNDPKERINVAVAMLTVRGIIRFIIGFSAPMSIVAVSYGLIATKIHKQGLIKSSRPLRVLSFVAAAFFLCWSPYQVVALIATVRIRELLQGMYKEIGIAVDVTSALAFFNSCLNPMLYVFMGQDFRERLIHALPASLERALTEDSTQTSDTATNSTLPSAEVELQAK
Description: as §1, §2

FPRL1 = biological target: T2, FPRL1 (Homo sapiens, UniProt P25090); experiment: [Ca2+]i increase in FPRL1-expressing RBL-2H3 cells; type: cell-based; details: 10 μM of each peptide (FIG. 7)
T2 construct: expressed in transfected cells; host or cells: RBL-2H3
T2 sequence (P25090 1-351): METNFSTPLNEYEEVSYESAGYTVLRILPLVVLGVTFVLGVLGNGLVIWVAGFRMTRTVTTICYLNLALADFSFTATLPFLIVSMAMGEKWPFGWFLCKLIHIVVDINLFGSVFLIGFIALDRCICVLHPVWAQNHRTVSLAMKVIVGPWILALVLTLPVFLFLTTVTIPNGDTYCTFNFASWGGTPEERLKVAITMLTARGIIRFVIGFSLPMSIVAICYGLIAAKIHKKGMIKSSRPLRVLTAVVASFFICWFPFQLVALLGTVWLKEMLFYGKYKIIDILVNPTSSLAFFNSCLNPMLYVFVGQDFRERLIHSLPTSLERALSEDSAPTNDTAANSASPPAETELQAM
Description: as §1, §2

human monocytes = experiment: Chemotaxis assay (modified Boyden chamber), monocytes; type: cell-based; details: FIG. 6B; control peptide at concentrations less than 10 μM
Description: FIGS. 6A and 6B show chemotactic effect of peptides. Assays were performed using a modified Boyden chamber assay, as described in the Examples. Isolated human neutrophils (A) or monocytes (B) (1×10^6 cells/ml in serum free RPMI) were added to the upper wells of a 96-well chemotaxis chamber and migration across a 3 μm pore size (5 μm for monocytes) polycarbonate membrane was assessed after 2 hrs incubation at 37° C. The numbers of migrated cells were determined by counting them in a high power field (400×). Results are presented as means±S.E. of three independent experiments each performed in duplicate.
Chemotaxis assays were performed using multiwell chambers (Neuroprobe Inc., Gaithersburg, Md.) (Bae et al. Blood. 2001. 97: 2854-2862). Briefly, prepared human monocytes were suspended in RPMI at a concentration of 1×10^6 cells/ml, and 25 μl of the suspension was then placed onto the upper well of a chamber separated by a 5 μm polyhydrocarbon filter (3 μm pores size not polyvinylpyrrolidone coated, as is needed for neutrophils) from peptides or N-formyl-methionyl-leucyl-phenylalanine (fMLF) in the lower well. After incubation for 2 hours (90 minutes for neutrophils) at 37° C., non-migrated cells were removed by scraping, and cells that migrated across the filter were dehydrated, fixed, and stained with hematoxylin (Sigma, St. Louis, Mo.). Stained cells were counted in five randomly chosen high power fields (HPF) (400×) (Bae et al. Blood. 2001. 97: 2854-2862).

[2] = tested on: differentiated HL60 cells; experiment: Arachidonic acid (AA) release in [3H]AA-labeled dHL60 cells; type: cell-based, human; details: for AA release stimulating activity (in words) / Effect of cPLA2-specific inhibitors AACOCF3 and MAFP on peptide-induced AA release: dHL60 cells; for AA release stimulating activity (in words): 10 μM; for Effect of cPLA2-specific inhibitors AACOCF3 and MAFP on peptide-induced AA release: inhibitor pretreatment 15 min, 1 μM peptide; for Folds of increase (% of total), arachidonic acid release: differentiated HL60 cells, 10 μM of peptide
Description: as §1
For the initial screening of the PS-SPCLs, we measured the AA release stimulating activity of each peptide pool. Cultured dHL60 cells (10^7 cells/ml) were pre-labeled with 0.5 μCi/ml of (^3H)-AA in RPMI 1640 medium containing 10% FBS for 90 min at 37° C. in a humidified incubator supplied with 95% air and 5% CO2, as described previously (Bae et al. J. Immunol. 2000. 164: 4089-4096). The labeled cells were then washed twice with serum-free RPMI 1640 and incubated in RPMI 1640 medium containing 0.1% fatty acid-free BSA for 15 min at 37° C. After discarding the medium, the cells were stimulated with various concentrations of peptide for the indicated times. Radioactivity in the medium and of collected cells was determined with a liquid scintillation counter. When investigating the effects of inhibitors, cells were preincubated with the indicated concentrations of each inhibitor or vehicle for 15 min prior to stimulation.

[3] = tested on: differentiated HL60 cells; experiment: [Ca2+]i increase in fura-2 loaded dHL60 cells; type: cell-based, human; details: for [Ca^2+]i: differentiated HL60 cells, fura-2, 1 μM of peptide
Description: as §1, §2

Row | [Ca^2+]i in FPR-expressing RBL-2H3 cells / ligand for FPR (FPR) | [Ca^2+]i increase in FPRL1-expressing RBL-2H3 cells (FPRL1) | Substance | [Ca^2+]i increase in undifferentiated HL60 cells [1] | Cellular chemotaxis in human monocytes (in words) (human monocytes) | AA release stimulating activity (in words) [2] | Effect of cPLA2-specific inhibitors AACOCF3 and MAFP on peptide-induced AA release [2] | Folds of increase (% of total), arachidonic acid release [2] [folds] | [Ca^2+]i [3] [nM] | Effect of PTX on peptide-stimulated calcium signaling ([1]; undifferentiated HL60 cells, data not shown) | Concentration of maximal activity, [Ca^2+]i increase ([3]; dHL60 cells, data not shown)
1 | not for FPR | induced calcium increase | MKYYKM-NH2 [Peptide P21] | did not affect | induced cellular chemotaxis | most potent | blocked | 2.86 ± 0.426 | 122 ± 15.7 | – | –
2 | not for FPR | induced calcium increase | RKYHVM-NH2 [Peptide P14] | did not affect | induced cellular chemotaxis | most potent | blocked | 2.23 ± 0.403 | 85 ± 9.5 | – | –

Row | Substance | [Ca^2+]i in FPR-expressing RBL-2H3 cells / ligand for FPR (FPR) | [Ca^2+]i increase in FPRL1-expressing RBL-2H3 cells (FPRL1) | [Ca^2+]i increase in undifferentiated HL60 cells [1] | Cellular chemotaxis in human monocytes (in words) (human monocytes) | AA release stimulating activity (in words) [2] | Effect of cPLA2-specific inhibitors AACOCF3 and MAFP on peptide-induced AA release [2] | Folds of increase (% of total), arachidonic acid release [2] [folds] | [Ca^2+]i [3] [nM] | Effect of PTX on peptide-stimulated calcium signaling ([1]; undifferentiated HL60 cells, data not shown) | Concentration of maximal activity, [Ca^2+]i increase ([3]; dHL60 cells, data not shown)
3 | MKYYYM-NH2 [Peptide P24] | not for FPR | induced calcium increase | dramatically induced | induced cellular chemotaxis | most potent | blocked | 2.93 ± 0.323 | 165 ± 23.4 | partially inhibited | approximately 3 μM
